# According to ChEMBL document CHEMBL1149531, “Inhibitory effect of 2-arylbenzofurans from Erythrina addisoniae on protein tyrosine phosphatase-1B” (Bioorg Med Chem Lett, 2007):
# Biological target: T1, Tyrosine-protein phosphatase non-receptor type 1 (Homo sapiens, UniProt P18031)
# T1 sequence (P18031 whole entry): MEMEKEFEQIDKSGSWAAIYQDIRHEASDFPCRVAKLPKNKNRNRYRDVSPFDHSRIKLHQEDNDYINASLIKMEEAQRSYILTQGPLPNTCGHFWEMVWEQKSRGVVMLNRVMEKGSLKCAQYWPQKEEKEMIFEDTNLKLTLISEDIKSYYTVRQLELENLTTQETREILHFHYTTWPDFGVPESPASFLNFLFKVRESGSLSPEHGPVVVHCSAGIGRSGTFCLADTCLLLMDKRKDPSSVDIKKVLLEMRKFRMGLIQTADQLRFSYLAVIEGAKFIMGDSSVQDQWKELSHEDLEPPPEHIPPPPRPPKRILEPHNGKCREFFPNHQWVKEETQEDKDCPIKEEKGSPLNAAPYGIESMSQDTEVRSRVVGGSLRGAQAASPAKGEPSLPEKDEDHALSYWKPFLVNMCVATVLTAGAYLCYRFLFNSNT
row,Structure (SMILES),IC50 [µM]
1,CC1(C)C=Cc2c(O)ccc(-c3cc4ccc(O)cc4o3)c2O1,62.7
2,CC1(C)C=Cc2c(ccc(-c3cc4ccc(O)cc4o3)c2O)O1,64.9
3,COc1ccc2cc(-c3ccc(O)cc3OC)oc2c1,74.1
4,CC(C)=CCc1c(O)ccc(-c2cc3ccc(O)cc3o2)c1O [2'-O-DEMETHYLBIDWILLOL B],13.6

# Further lines, results first:
row,IC50 [µM],Structure (SMILES)
1,17.5,COc1cc(O)c(CC=C(C)C)cc1-c1cc2ccc(O)cc2o1 [ADDISOFURAN A]
2,15.7,COc1cc(O)ccc1-c1cc2cc(CC=C(C)C)c(O)cc2o1 [ADDISOFURAN B]
